Test results from patent US9738634B2, “Heterocyclic amide compound and herbicide” (SYNGENTA PARTICIPATIONS AG, priority 2013, dated 2017).

Legend:
Assay type in all cases: in vivo
[1] = system: black-grass; assay: Test Example 4: weedkilling efficacy by foliar treatment; H: black-grass; conditions: treatment dosage 315 g/ha
Outline: (§1)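 Seeds are spot-sown into sterilized diluvial soil and covered with about 1.5 cm of soil. After 14 days' greenhouse growth at 25 to 30° C, plants are sprayed on stems and leaves with diluted emulsion at the stated g/ha rate, then scored at 3 weeks.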

[2] = system: birds-eye speedwell; assay: Test Example 4: weedkilling efficacy by foliar treatment; p: birds-eye speedwell; conditions: treatment dosage 315 g/ha
Outline: as §1

[3] = system: redroot pigweed; assay: Test Example 4: weedkilling efficacy by foliar treatment; L: redroot pigweed; conditions: treatment dosage 315 g/ha
Outline: as §1

[4] = system: oval-leafed pondweed; assay: Test Example 1: weedkilling efficacy, preemergent weed treatment in the submerged state; C: oval-leafed pondweed; conditions: treatment dosage 252 g/ha
Outline: (§2)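 Pre-emergence paddy test: weed seeds sown in submerged alluvial soil (4 cm water), 2.5-leaf rice transplanted, water-diluted emulsion applied to water surface at sowing at stated g/ha. Scored at 3 weeks, greenhouse 25–30 °C.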

[5] = system: black-grass; assay: Test Example 3: weedkilling efficacy through soil treatment; H: black-grass; conditions: treatment dosage 315 g/ha
Outline: (§3)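 Crop and weed responses were judged three weeks after a uniform surface spray of the water-diluted emulsion at the given g/ha rate. Seeds sat beneath about 1.5 cm of sterilized diluvial soil, and boxes stood in a greenhouse at 25 to 30° C.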

[6] = system: chickweed; assay: Test Example 3: weedkilling efficacy through soil treatment; N: chickweed; conditions: treatment dosage 315 g/ha
Outline: as §3

[7] = system: bulrush; assay: Test Example 2: weedkilling efficacy, growth period weed treatment in the submerged state; B: bulrush; conditions: treatment dosage 252 g/ha
Outline: (§4)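 Seedlings at 1-2 leaves in 4 cm-deep submerged alluvial soil received emulsion formulations on the water surface, dosed per hectare; effects were judged 3 weeks on.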

[8] = system: catchweed; assay: Test Example 3: weedkilling efficacy through soil treatment; O: catchweed; conditions: treatment dosage 315 g/ha
Outline: as §3

[9] = system: oval-leafed pondweed; assay: Test Example 2: weedkilling efficacy, growth period weed treatment in the submerged state; C: oval-leafed pondweed; conditions: treatment dosage 252 g/ha
Outline: as §4

[10] = system: bulrush; assay: Test Example 1: weedkilling efficacy, preemergent weed treatment in the submerged state; B: bulrush; conditions: treatment dosage 252 g/ha
Outline: as §2

[11] = system: barnyard grass; assay: Test Example 2: weedkilling efficacy, growth period weed treatment in the submerged state; A: barnyard grass; conditions: treatment dosage 252 g/ha
Outline: as §4

[12] = system: Indian mallow; assay: Test Example 3: weedkilling efficacy through soil treatment; K: Indian mallow; conditions: treatment dosage 315 g/ha
Outline: as §3

[13] = system: fig-leafed goosefoot; assay: Test Example 4: weedkilling efficacy by foliar treatment; M: fig-leafed goosefoot; conditions: treatment dosage 315 g/ha
Outline: as §1

[14] = system: wheat; assay: Test Example 4: foliar treatment, effect on crop; e: wheat; conditions: treatment dosage 315 g/ha
Outline: as §1

[15] = system: transplanted rice; assay: Test Example 1: preemergent weed treatment in the submerged state, effect on crop; a: transplanted rice; conditions: treatment dosage 252 g/ha
Outline: as §2

[16] = system: redroot pigweed; assay: Test Example 3: weedkilling efficacy through soil treatment; L: redroot pigweed; conditions: treatment dosage 315 g/ha
Outline: as §3

[17] = system: chickweed; assay: Test Example 4: weedkilling efficacy by foliar treatment; N: chickweed; conditions: treatment dosage 315 g/ha
Outline: as §1

[18] = system: directly sown rice; assay: Test Example 3: soil treatment, effect on crop; b: directly sown rice; conditions: treatment dosage 315 g/ha
Outline: as §3

[19] = system: catchweed; assay: Test Example 4: weedkilling efficacy by foliar treatment; O: catchweed; conditions: treatment dosage 315 g/ha
Outline: as §1

[20] = system: crabgrass; assay: Test Example 4: weedkilling efficacy by foliar treatment; D: crabgrass; conditions: treatment dosage 315 g/ha
Outline: as §1

[21] = system: barnyard grass; assay: Test Example 1: weedkilling efficacy, preemergent weed treatment in the submerged state; A: barnyard grass; conditions: treatment dosage 252 g/ha
Outline: as §2

[22] = system: crabgrass; assay: Test Example 3: weedkilling efficacy through soil treatment; D: crabgrass; conditions: treatment dosage 315 g/ha
Outline: as §3

[23] = system: soybean; assay: Test Example 3: soil treatment, effect on crop; d: soybean; conditions: treatment dosage 315 g/ha
Outline: as §3

[24] = system: corn; assay: Test Example 3: soil treatment, effect on crop; c: corn; conditions: treatment dosage 315 g/ha
Outline: as §3

[25] = system: Italian ryegrass; assay: Test Example 4: weedkilling efficacy by foliar treatment; I: Italian ryegrass; conditions: treatment dosage 315 g/ha
Outline: as §1

[26] = system: green foxtail; assay: Test Example 4: weedkilling efficacy by foliar treatment; E: green foxtail; conditions: treatment dosage 315 g/ha
Outline: as §1

[27] = system: corn; assay: Test Example 4: foliar treatment, effect on crop; c: corn; conditions: treatment dosage 315 g/ha
Outline: as §1

[28] = system: Italian ryegrass; assay: Test Example 3: weedkilling efficacy through soil treatment; I: Italian ryegrass; conditions: treatment dosage 315 g/ha
Outline: as §3

[29] = system: directly sown rice; assay: Test Example 4: foliar treatment, effect on crop; b: directly sown rice; conditions: treatment dosage 315 g/ha
Outline: as §1

[30] = system: wheat; assay: Test Example 3: soil treatment, effect on crop; e: wheat; conditions: treatment dosage 315 g/ha
Outline: as §3

[31] = system: soybean; assay: Test Example 4: foliar treatment, effect on crop; d: soybean; conditions: treatment dosage 315 g/ha
Outline: as §1

[32] = system: Indian mallow; assay: Test Example 4: weedkilling efficacy by foliar treatment; K: Indian mallow; conditions: treatment dosage 315 g/ha
Outline: as §1

[33] = system: birds-eye speedwell; assay: Test Example 3: weedkilling efficacy through soil treatment; p: birds-eye speedwell; conditions: treatment dosage 315 g/ha
Outline: as §3

[34] = system: green foxtail; assay: Test Example 3: weedkilling efficacy through soil treatment; E: green foxtail; conditions: treatment dosage 315 g/ha
Outline: as §3

[35] = system: fig-leafed goosefoot; assay: Test Example 3: weedkilling efficacy through soil treatment; M: fig-leafed goosefoot; conditions: treatment dosage 315 g/ha
Outline: as §3

[36] = system: beet; assay: Test Example 3: soil treatment, effect on crop; f: beet; conditions: treatment dosage 315 g/ha
Outline: as §3

[37] = system: beet; assay: Test Example 4: foliar treatment, effect on crop; f: beet; conditions: treatment dosage 315 g/ha
Outline: as §1

`CC1=C(c2ccccc2)C(=O)N(C(C)(C)C(=O)Nc2nc(C)ns2)CO1` [B-1-13] was tested, and the “H (black-grass) weedkilling efficacy grade” value [1] was 5 (weed kill ratio 90% or more, (practically complete withering)), the “P (birds-eye speedwell) weedkilling efficacy grade” value [2] was 4 (weed kill ratio 70% or more, less than 90%) and the “L (redroot pigweed) weedkilling efficacy grade” value [3] was 5 (weed kill ratio 90% or more, (practically complete withering)). For the same compound, the “C (oval-leafed pondweed) weedkilling efficacy grade” value [4] was 5 (weed kill ratio 90% or more, (practically complete withering)), the “H (black-grass) weedkilling efficacy grade” value [5] was 5 (weed kill ratio 90% or more, (practically complete withering)) and the “N (chickweed) weedkilling efficacy grade” value [6] was 4 (weed kill ratio 70% or more, less than 90%). The “B (bulrush) weedkilling efficacy grade” value [7] was 5 (weed kill ratio 90% or more, (practically complete withering)), the “O (catchweed) weedkilling efficacy grade” value [8] was 5 (weed kill ratio 90% or more, (practically complete withering)) and the “C (oval-leafed pondweed) weedkilling efficacy grade” value [9] was 5 (weed kill ratio 90% or more, (practically complete withering)). The “B (bulrush) weedkilling efficacy grade” value [10] was 5 (weed kill ratio 90% or more, (practically complete withering)), the “A (barnyard grass) weedkilling efficacy grade” value [11] was 5 (weed kill ratio 90% or more, (practically complete withering)) and the “K (Indian mallow) weedkilling efficacy grade” value [12] was 2 (weed kill ratio 20% or more, less than 40%). The “M (fig-leafed goosefoot) weedkilling efficacy grade” value [13] was 4 (weed kill ratio 70% or more, less than 90%), the “e (wheat) effect on crop grade” value [14] was 4 (weed kill ratio 70% or more, less than 90%) and the “a (transplanted rice) effect on crop grade” value [15] was 0 (weed kill ratio 5% or less (practically no effect)). For the same compound, the “L (redroot pigweed) weedkilling efficacy grade” value [16] was 4 (weed kill ratio 70% or more, less than 90%), the “N (chickweed) weedkilling efficacy grade” value [17] was 4 (weed kill ratio 70% or more, less than 90%) and the “b (directly sown rice) effect on crop grade” value [18] was 5 (weed kill ratio 90% or more, (practically complete withering)). For the same compound, the “O (catchweed) weedkilling efficacy grade” value [19] was 5 (weed kill ratio 90% or more, (practically complete withering)), the “D (crabgrass) weedkilling efficacy grade” value [20] was 5 (weed kill ratio 90% or more, (practically complete withering)) and the “A (barnyard grass) weedkilling efficacy grade” value [21] was 5 (weed kill ratio 90% or more, (practically complete withering)). The “D (crabgrass) weedkilling efficacy grade” value [22] was 5 (weed kill ratio 90% or more, (practically complete withering)), the “d (soybean) effect on crop grade” value [23] was 4 (weed kill ratio 70% or more, less than 90%) and the “c (corn) effect on crop grade” value [24] was 3 (weed kill ratio 40% or more, less than 70%). The “I (Italian ryegrass) weedkilling efficacy grade” value [25] was 5 (weed kill ratio 90% or more, (practically complete withering)), the “E (green foxtail) weedkilling efficacy grade” value [26] was 5 (weed kill ratio 90% or more, (practically complete withering)) and the “c (corn) effect on crop grade” value [27] was 2 (weed kill ratio 20% or more, less than 40%). For the same compound, the “I (Italian ryegrass) weedkilling efficacy grade” value [28] was 5 (weed kill ratio 90% or more, (practically complete withering)), the “b (directly sown rice) effect on crop grade” value [29] was 5 (weed kill ratio 90% or more, (practically complete withering)) and the “e (wheat) effect on crop grade” value [30] was 5 (weed kill ratio 90% or more, (practically complete withering)). For the same compound, the “d (soybean) effect on crop grade” value [31] was 5 (weed kill ratio 90% or more, (practically complete withering)), the “K (Indian mallow) weedkilling efficacy grade” value [32] was 5 (weed kill ratio 90% or more, (practically complete withering)) and the “P (birds-eye speedwell) weedkilling efficacy grade” value [33] was 5 (weed kill ratio 90% or more, (practically complete withering)). For the same compound, the “E (green foxtail) weedkilling efficacy grade” value [34] was 5 (weed kill ratio 90% or more, (practically complete withering)), the “M (fig-leafed goosefoot) weedkilling efficacy grade” value [35] was 4 (weed kill ratio 70% or more, less than 90%) and the “f (beet) effect on crop grade” value [36] was 5 (weed kill ratio 90% or more, (practically complete withering)). For the same compound, the “f (beet) effect on crop grade” value [37] was 3 (weed kill ratio 40% or more, less than 70%).
